From patent US11986457B2, “Nutraceutical compositions” (SpecNova LLC, priority 2021, dated 2024)

Biological target: Human Dopamine Transporter (DAT) (Homo sapiens, UniProt Q01959)
Experiment: Human Dopamine Transporter (DAT) Binding (Antagonist Radioligand) Assay
Settings: for level of inhibition in the dopamine transporter inhibitory assay: statement in words in the description
Procedure: Human Dopamine Transporter (DAT) Binding (Antagonist Radioligand) Assay
Nonspecific binding is determined in the presence of 10 μM BTCP. Following incubation, the samples are filtered rapidly under vacuum through glass fiber filters (GF/B, Packard) presoaked with 0.3% PEI and rinsed several times with ice-cold 50 mM Tris-HCl using a 96-sample cell harvester (Unifilter, Packard). The filters are dried then counted for radioactivity in a scintillation counter (Topcount, Packard) using a scintillation cocktail (Microscint 0, Packard). The results are expressed as a percent inhibition of the control radioligand specific binding.

Chain of Human Dopamine Transporter (DAT) (Q01959 whole entry): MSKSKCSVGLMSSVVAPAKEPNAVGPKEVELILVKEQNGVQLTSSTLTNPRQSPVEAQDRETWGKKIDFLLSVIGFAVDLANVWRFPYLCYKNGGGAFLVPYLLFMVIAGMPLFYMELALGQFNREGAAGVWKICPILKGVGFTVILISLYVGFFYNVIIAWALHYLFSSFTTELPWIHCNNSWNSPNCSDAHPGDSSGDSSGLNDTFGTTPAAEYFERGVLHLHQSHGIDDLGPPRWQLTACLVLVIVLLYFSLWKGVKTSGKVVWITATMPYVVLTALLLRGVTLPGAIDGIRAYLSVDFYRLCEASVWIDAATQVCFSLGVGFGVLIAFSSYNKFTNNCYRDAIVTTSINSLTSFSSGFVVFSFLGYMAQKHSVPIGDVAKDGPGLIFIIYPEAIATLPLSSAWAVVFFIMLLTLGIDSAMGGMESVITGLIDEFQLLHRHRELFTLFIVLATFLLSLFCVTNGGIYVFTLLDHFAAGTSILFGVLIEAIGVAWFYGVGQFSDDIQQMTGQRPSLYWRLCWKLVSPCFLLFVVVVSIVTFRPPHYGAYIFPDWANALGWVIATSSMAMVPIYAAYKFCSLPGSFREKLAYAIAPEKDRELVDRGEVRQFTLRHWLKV

Row | Compound | level of inhibition in the dopamine transporter inhibitory assay | % of Control Specific Binding (mean of two tests) ([3H]BTCP 4 nM radioligand, mean of two tests) [%]
1 | OC[C@@H](O)[C@@H](/C=C/c1ccc(O)cc1)c1ccc(O)c(O)c1 [Sequirin C, 4-[(1S,2E)-1-[(1S)-1,2-dihydroxyethyl]-3-(4-hydroxyphenyl)prop-2-en-1-yl]benzene-1,2-diol] | extremely high level of inhibition | 
2 | OC[C@@H](O)[C@@H](/C=C/c1ccc(O)cc1)c1ccc(O)cc1 [Agatharesinol, (2S,3S,4E)-3,5-bis(4-hydroxyphenyl)pent-4-ene-1,2-diol] | extremely high level of inhibition | 4.6
3 | CC(C)=CCc1c(C2CCc3ccc(O)cc3O2)ccc(O)c1O (stereo in doubt) [Kazinol U, 4-[(2S)-7-hydroxy-3,4-dihydro-2H-chromen-2-yl]-3-(3-methylbut-2-enyl)benzene-1,2-diol] | high level of inhibition | 
